Key:
[1] = tested on: fungus; conditions: cited from earlier work
[2] = tested on: various strains of both gram positive and gram negative bacteria; conditions: cited from earlier work
[3] = tested on: bacteria (bacterial count); experiment: ASTM D-3946-92 testing of metalworking fluid Encool SS with product incorporated; assay type: cell-based; conditions: day 5, 1×10^7 without product
Description: 1,128 g oleic acid and 400 g BNPD plus 2 g sulfuric were charged in a three neck round bottom flask with agitation, nitrogen, and condenser and heated to 350 F and held for 2.5 hrs until 80 ml of water were recovered. This product was then incorporated into Engineered Lubricants Encool SS at 6% and 10% of the concentrate.
These samples were then submitted for ASTM D-3946-92 testing.

[4] = prior art; cited from earlier work
[5] = tested on: nematodes in the soil; conditions: prior art; cited from earlier work

## O=[N+]([O-])C(Br)(CO)CO [BNPD, 2-bromo-2-nitro-propane-1-3-diol]
[1]
  antifungal activity: antifungal
[2]; average over gram positive and gram negative strains
  average minimum inhibitory concentration: around 25 ppm
[2]; various strains of gram positive and gram negative bacteria
  effective concentrations against bacteria: 1-50 ppm

## CCCCCCC/C=C/CCCCCCCCC(=O)OCC(Br)(COC(=O)CCCCCCCC/C=C/CCCCCCC)[N+](=O)[O-] [Example 7]
[3]; 6% incorporation in Encool SS concentrate
  bacterial count: 1.5×10^4
[3]; 10% incorporation in Encool SS concentrate
  bacterial count: 3×10^3

## O=[N+]([O-])CBr [bromonitromethane]
[4]
  effectiveness as a general biocide: effective
[5]
  effectiveness for the treatment of nematodes in the soil: effective
